Measured values published in patent publication US11679109B2, “SMARCA degraders and uses thereof” (Kymera Therapeutics, Inc., priority 2019, dated 2023).

What was measured:
Type in all cases: cell-based
SMARCA2 [1] = biological target: T1, SMARCA2 (Homo sapiens, UniProt P51531); test: SMARCA2 Western blot MV4-11 degradation; parameters: SMARCA2/SMARCA4 protein degradation selectivity in MV4-11 cells; endogenous in cells; host or cells: MV4-11; conditions: MV4-11 cells, 24 h; for DC50: read-out: SMARCA2 MSD MV411 degradation 24 h: Mean external-Abs DC50; for Dmax: read-out: SMARCA2 MSD MV411 degradation 24 h: average Dmax %
SMARCA2 [2] = biological target: T1, SMARCA2; test: MSD SMARCA2 degradation in A549 cell line; conditions: A549 cells, 24 h; for DC50: read-out: SMARCA2 MSD A549 degradation 24 h: Average external-Abs DC50
Method: Cells were seeded into 96-well plates (A549 cells: 2×10^4 cells/well/100 ul media) and incubated overnight. The next day, 200 nL compound were added into the intermediate plate with Echo (Labcyte 550) from source plate containing a 3-fold serial dilution from top concentration of 1 mM. The culture medium was changed with 80 ul of fresh medium and 80 uL of 2× compound solution was added into the well to make a final concentration of 1000 nM, 333.3 nM, 111.1 nM, 37.04 nM, 12.35 nM, 4.115 nM, 1.372 nM, 0.457 nM, 0.152 nM and 0 nM (DMSO). The wells were mixed and then incubated for 24 hours. The media was aspirated from the cultures and 60 ul pre-chilled PIPA lysis buffer (Boston BioProducts BP-115D) with protease/phosphatase inhibitor (Roche 05892791001/Roche 04906837001) was added into the well to lyze the cells for 20 minutes at 4° C. The MSD plate (L15XA) was coated with 40 uL cell lysate and incubated at 4° C. overnight. The next day, the plate was washed three times with TBST (CST #9997S), 150 ul/well. The MSD plates was blocked with 150 ul blocking buffer per well and shaked for 1 hr at RT, 600 rpm. The blocking buffer was 3% Blocker A (MSD, R93BA-4) in TBST. The MSD plate was washed three times with 150 uL/well of TBST and 25 ul/well of detection antibody (Rabbit anti-SMARCA2/BRM antibody, 100 μg/mL, ab223735) was added at final concentration of 1 ug/mL diluted in 1% Blocking buffer and shaken for 1 hour at RT, 600 rpm. The MSD plate was washed three times with 150 ul/well of TBST and 25 ul/well of SULFO-TAG anti-rabbit antibody (MSD, R32AB-1) was added at final concentration of 1 ug/ml diluted in 1% Blocking buffer and shaken for 1 hour at RT, 600 rpm. The MSD plate was washed three times with 150 uL/well of TBST and 150 ul/well of 2×MSD reading buffer diluted from 4× (MSD, R92TC-2) with water was added. Lastly, the MSD instrument was read.
(§1) The letter codes for SMARCA2 degradation potency (DC50) include: A (<100 nM), B (100-500 nM), C (501-1000 nM), and D (>1000 nM). The letter codes for the percentage of SMARCA degradation after 24 hours (Dmax %) include: A (>90% degradation), B (>70-90% degradation), C (50-70% degradation), and D (<50% degradation).

SMARCA4 = biological target: T2, SMARCA4 (Homo sapiens, UniProt P51532); test: SMARCA4 Western blot MV4-11 degradation; conditions: MV4-11 cells, 24 h; for DC50: read-out: SMARCA4 MSD MV411 degradation 24 h: Mean external-Abs DC50; for Dmax: read-out: SMARCA4 MSD MV411 degradation 24 h: average Dmax %
T2 construct: SMARCA2/SMARCA4 protein degradation selectivity in MV4-11 cells; endogenous in cells; host or cells: MV4-11
Method: Cells were seeded into 6-well plates (MV4-11: 4×10^6 cells/well/1 ml) and 1 ml of 2× compound solution was added into the well to make the final concentration and the plates were mixed well and incubated for 24 hours (No cytotoxicity was observed). The cell were collected with media and spun at 3000 rpm for 5 minutes. The supernatant was aspirated and the well and the cells were washed with cold PBS once and combined for centrifugation again; the supernatant aspirated again. 200 uL pre-chilled RIPA lysis buffer (Boston BioProducts BP-115D) with protease/phosphatase inhibitor (Roche 05892791001/Roche 04906837001) was directly added into the tube to lyze the cells for 20 minutes on ice. The cell lysate were collected into EP tubes and spun at 13000 rpm for 20 minutes and 72 uL supernatant was transferred to a fresh EP tube containing 18 uL of 5× loading buffer (Beyotime Bio P0015) to make the loading samples. The samples were heated to 100° C. for 10 minutes and cooled to RT and microcentrifuged. 20 uL of samples were loaded onto SDS-PAGE gel (Novex, WG1402BOX) and the gel was run at 80 V for 20 minutes and 120 V for 1.5 hours. The samples were electrotransfer to a NC membrane using wet-transfer method with 250 mA for 2.5 hours. The membrane was blocked with LICOR blocking buffer (LICOR, 927-50000) for 1 hour. The membrane was washed three times with TBST(CST #9997S), 5 minutes each. Incubation was performed with primary antibody prepared in blocking buffer with 0.1% Tween-20 (Solarbio, P8220) at 4° C. overnight (Anti-SMARCA2/BRM antibody (ab15597) 1:500; Anti-BRG1 antibody [EPR3912] (ab108318) 1:1000; Rabbit anti-Baf180 antibody [EPR15860] (Abeam,ab 196022) 1:1000; mouse anti-beta-Actin (8H10D10) (CST #3700) 1:10000). The membrane was washed three times with TBST, 5 minutes each. Incubation with secondary antibody was performed for 1 hour at RT (anti-rabbit IgG (Licor, 926-32211) 1:5000; anti-mouse IgG (LI-COR, 926-68070) 1:5000). The membrane was washed three times with 5 minutes each and lastly the LiCOR was read.
as §1, with “SMARCA2/4” for “SMARCA2”

T2 sequence (P51532 whole entry): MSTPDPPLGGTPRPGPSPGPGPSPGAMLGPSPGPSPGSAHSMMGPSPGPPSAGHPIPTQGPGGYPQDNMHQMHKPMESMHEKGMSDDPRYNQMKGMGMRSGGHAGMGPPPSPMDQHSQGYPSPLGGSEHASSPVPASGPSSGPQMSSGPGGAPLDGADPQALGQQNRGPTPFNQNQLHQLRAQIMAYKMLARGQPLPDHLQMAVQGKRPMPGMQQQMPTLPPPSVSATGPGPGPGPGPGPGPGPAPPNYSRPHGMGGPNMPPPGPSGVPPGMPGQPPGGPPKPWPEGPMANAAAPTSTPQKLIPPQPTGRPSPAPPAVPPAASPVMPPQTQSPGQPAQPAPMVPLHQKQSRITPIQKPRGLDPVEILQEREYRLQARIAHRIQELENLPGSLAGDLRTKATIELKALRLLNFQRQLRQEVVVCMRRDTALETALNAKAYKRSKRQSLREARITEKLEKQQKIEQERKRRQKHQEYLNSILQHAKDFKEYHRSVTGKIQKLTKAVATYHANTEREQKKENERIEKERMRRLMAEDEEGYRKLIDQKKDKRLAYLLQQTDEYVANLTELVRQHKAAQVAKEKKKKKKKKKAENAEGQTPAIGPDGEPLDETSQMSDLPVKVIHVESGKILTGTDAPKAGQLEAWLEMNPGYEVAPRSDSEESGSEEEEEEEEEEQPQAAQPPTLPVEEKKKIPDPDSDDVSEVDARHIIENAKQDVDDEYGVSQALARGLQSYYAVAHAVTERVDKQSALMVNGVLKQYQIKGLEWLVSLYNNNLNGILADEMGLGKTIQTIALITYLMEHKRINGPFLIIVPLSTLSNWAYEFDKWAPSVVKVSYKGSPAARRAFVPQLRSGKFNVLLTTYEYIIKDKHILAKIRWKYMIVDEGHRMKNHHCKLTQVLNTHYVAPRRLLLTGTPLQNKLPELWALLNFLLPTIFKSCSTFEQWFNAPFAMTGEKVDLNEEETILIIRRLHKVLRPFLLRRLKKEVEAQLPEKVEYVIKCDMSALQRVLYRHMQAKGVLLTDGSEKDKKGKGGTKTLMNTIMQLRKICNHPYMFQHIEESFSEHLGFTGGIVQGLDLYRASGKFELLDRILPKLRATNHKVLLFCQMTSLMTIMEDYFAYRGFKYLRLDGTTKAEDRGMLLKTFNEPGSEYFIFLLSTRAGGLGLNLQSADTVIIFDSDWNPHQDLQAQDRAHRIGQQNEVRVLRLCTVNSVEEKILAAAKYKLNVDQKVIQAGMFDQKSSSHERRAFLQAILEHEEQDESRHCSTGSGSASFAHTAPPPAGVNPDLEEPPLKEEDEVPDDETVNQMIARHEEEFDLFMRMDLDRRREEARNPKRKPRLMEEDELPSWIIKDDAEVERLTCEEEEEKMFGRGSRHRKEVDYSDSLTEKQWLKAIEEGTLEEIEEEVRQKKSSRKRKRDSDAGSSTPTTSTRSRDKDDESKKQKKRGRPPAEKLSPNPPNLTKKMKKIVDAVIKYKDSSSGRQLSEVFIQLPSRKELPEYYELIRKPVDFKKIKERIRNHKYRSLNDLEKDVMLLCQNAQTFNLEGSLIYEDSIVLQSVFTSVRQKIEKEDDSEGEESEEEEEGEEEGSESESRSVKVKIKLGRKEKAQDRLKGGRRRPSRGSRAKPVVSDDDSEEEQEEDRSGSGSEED
T1 sequence (P51531 whole entry): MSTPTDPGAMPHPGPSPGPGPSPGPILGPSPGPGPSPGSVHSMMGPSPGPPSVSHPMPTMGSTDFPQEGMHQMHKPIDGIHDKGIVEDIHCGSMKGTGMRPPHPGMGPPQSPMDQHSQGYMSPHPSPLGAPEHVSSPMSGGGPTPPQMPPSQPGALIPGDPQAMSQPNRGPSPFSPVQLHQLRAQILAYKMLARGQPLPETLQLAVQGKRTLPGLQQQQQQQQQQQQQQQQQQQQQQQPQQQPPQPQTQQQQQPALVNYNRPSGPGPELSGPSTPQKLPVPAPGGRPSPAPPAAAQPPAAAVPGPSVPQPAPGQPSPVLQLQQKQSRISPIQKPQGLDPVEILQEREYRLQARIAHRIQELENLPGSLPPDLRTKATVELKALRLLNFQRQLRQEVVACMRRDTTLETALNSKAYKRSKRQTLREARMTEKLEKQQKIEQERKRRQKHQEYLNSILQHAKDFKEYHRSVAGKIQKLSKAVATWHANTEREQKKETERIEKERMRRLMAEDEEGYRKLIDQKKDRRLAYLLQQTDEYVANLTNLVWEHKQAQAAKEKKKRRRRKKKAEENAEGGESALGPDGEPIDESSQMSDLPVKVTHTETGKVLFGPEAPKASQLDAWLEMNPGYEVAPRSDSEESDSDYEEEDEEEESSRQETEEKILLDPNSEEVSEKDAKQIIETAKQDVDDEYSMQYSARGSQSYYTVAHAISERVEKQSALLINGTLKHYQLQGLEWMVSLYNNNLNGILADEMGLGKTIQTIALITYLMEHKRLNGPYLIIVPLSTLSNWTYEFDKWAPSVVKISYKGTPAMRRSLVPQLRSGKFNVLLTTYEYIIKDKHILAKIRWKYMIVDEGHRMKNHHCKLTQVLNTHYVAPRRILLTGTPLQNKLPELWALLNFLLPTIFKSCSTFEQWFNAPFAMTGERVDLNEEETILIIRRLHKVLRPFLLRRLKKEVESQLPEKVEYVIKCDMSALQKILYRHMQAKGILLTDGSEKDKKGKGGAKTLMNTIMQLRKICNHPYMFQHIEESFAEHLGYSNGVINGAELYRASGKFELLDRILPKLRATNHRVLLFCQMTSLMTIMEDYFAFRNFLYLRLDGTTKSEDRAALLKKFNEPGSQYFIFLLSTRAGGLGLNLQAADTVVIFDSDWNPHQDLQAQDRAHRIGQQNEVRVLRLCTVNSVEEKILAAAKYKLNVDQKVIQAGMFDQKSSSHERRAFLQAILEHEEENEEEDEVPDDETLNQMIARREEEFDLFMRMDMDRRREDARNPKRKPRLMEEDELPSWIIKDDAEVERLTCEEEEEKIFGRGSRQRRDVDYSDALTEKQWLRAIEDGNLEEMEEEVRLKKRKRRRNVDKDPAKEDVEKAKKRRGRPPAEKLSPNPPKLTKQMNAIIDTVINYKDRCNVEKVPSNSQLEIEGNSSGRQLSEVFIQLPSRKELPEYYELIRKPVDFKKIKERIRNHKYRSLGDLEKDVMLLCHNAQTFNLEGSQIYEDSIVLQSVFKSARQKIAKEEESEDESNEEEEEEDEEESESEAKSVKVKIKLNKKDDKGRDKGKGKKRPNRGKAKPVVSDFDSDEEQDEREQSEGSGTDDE

SMILES: Cc1ncsc1-c1ccc(CNC(=O)[C@@H]2C[C@@H](O)CN2C(=O)[C@@H](NC(=O)[C@H]2CC3(C2)C[C@H](N2CCC(c4cnc(N5CCc6[nH]c7nnc(-c8ccccc8O)cc7c6[C@H]5C)nc4)CC2)C3)C(C)(C)C)cc1 (single isomer, unassigned) [I-40]
- DC50 (SMARCA2 [1]): < 100 nM
- Dmax (SMARCA2 [1]): 70 to 90%
- Dmax (SMARCA2 [2]): 70 to 90%
- DC50 (SMARCA2 [2]): 100 to 500 nM
- DC50 (SMARCA4): > 1000 nM
- Dmax (SMARCA4): < 50%

SMILES: Cc1ncsc1-c1ccc(CNC(=O)[C@@H]2C[C@@H](O)CN2C(=O)[C@@H](NC(=O)[C@H]2CC3(C2)C[C@H](N2CCC(c4cnc(N5CCc6[nH]c7nnc(-c8ccccc8O)cc7c6[C@H]5C)nc4)CC2)C3)C(C)(C)C)cc1 (single isomer, unassigned) [I-41]
- DC50 (SMARCA2 [1]): < 100 nM
- DC50 (SMARCA2 [2]): 100 to 500 nM
- DC50 (SMARCA4): > 1000 nM

SMILES: Cc1ncsc1-c1ccc(CNC(=O)[C@@H]2C[C@@H](O)CN2C(=O)[C@@H](NC(=O)C2CC3(C2)CC(N2CCC(c4ccnc(N5CCc6[nH]c7nnc(-c8ccccc8O)cc7c6[C@H]5C)n4)CC2)C3)C(C)(C)C)cc1 (stereo partly drawn) [I-13, (2S,4R)-4-hydroxy-1-((S)-2-(6-(4-(2-((R)-3-(2-hydroxyphenyl)-5-methyl-7,8-dihydro-5H-pyrido[3′,4′:4,5]pyrrolo[2,3-c]pyridazin-6(9H)-yl)pyrimidin-4-yl)piperidin-1-yl)spiro[3.3]heptane-2-carboxamido)-3,3-dimethylbutanoyl)-N-(4-(4-methylthiazol-5-yl)benzyl)pyrrolidine-2-carboxamide]
- DC50 (SMARCA2 [1]): 501 to 1000 nM
- Dmax (SMARCA2 [1]): 50 to 70%
- Dmax (SMARCA2 [2]): < 50%
- DC50 (SMARCA2 [2]): > 1000 nM
- DC50 (SMARCA4): > 1000 nM
- Dmax (SMARCA4): 50 to 70%

SMILES: Cc1ncsc1-c1ccc(CNC(=O)[C@@H]2C[C@@H](O)CN2C(=O)[C@@H](NC(=O)C2CC3(C2)CC(N2CCC(c4ccnc(N5CCc6[nH]c7nnc(-c8ccccc8O)cc7c6[C@@H]5C)n4)CC2)C3)C(C)(C)C)cc1 (stereo partly drawn) [I-14, (2S,4R)-4-hydroxy-1-((S)-2-(6-(4-(2-((S)-3-(2-hydroxyphenyl)-5-methyl-7,8-dihydro-5H-pyrido[3′,4′:4,5]pyrrolo[2,3-c]pyridazin-6(9H)-yl)pyrimidin-4-yl)piperidin-1-yl)spiro[3.3]heptane-2-carboxamido)-3,3-dimethylbutanoyl)-N-(4-(4-methylthiazol-5-yl)benzyl)pyrrolidine-2-carboxamide]
- DC50 (SMARCA2 [1]): < 100 nM
- Dmax (SMARCA2 [1]): 70 to 90%
- Dmax (SMARCA2 [2]): 70 to 90%
- DC50 (SMARCA2 [2]): 100 to 500 nM
- DC50 (SMARCA4): > 1000 nM
- Dmax (SMARCA4): 50 to 70%

SMILES: Cc1ncsc1-c1ccc(CNC(=O)[C@@H]2C[C@@H](O)CN2C(=O)[C@@H](NC(=O)C2CC3(C2)CC(N2CCC(c4cnc(N5CCc6[nH]c7nnc(-c8ccccc8O)cc7c6[C@@H]5C)nc4)CC2)C3)C(C)(C)C)cc1 (stereo partly drawn) [I-37, (2S,4R)-4-hydroxy-1-((S)-2-(6-(4-(2-((S)-3-(2-hydroxyphenyl)-5-methyl-7,8-dihydro-5H-pyrido[3′,4′:4,5]pyrrolo[2,3-c]pyridazin-6(9H)-yl)pyrimidin-5-yl)piperidin-1-yl)spiro[3.3]heptane-2-carboxamido)-3,3-dimethylbutanoyl)-N-(4-(4-methylthiazol-5-yl)benzyl)pyrrolidine-2-carboxamide]
- DC50 (SMARCA2 [1]): 100 to 500 nM
- Dmax (SMARCA2 [1]): 50 to 70%
- Dmax (SMARCA2 [2]): 70 to 90%
- DC50 (SMARCA2 [2]): 100 to 500 nM

SMILES: Cc1ncsc1-c1ccc(CNC(=O)[C@@H]2C[C@@H](O)CN2C(=O)[C@@H](NC(=O)C2CC3(C2)CC(N2CCC(c4cnc(N5CCc6[nH]c7nnc(-c8ccccc8O)cc7c6[C@H]5C)nc4)CC2)C3)C(C)(C)C)cc1 (stereo partly drawn) [I-38, (2S,4R)-4-hydroxy-1-((S)-2-(6-(4-(2-((R)-3-(2-hydroxyphenyl)-5-methyl-7,8-dihydro-5H-pyrido[3′,4′:4,5]pyrrolo[2,3-c]pyridazin-6(9H)-yl)pyrimidin-5-yl)piperidin-1-yl)spiro[3.3]heptane-2-carboxamido)-3,3-dimethylbutanoyl)-N-(4-(4-methylthiazol-5-yl)benzyl)pyrrolidine-2-carboxamide]
- DC50 (SMARCA2 [1]): < 100 nM
- Dmax (SMARCA2 [1]): 70 to 90%
- Dmax (SMARCA2 [2]): > 90%
- DC50 (SMARCA2 [2]): < 100 nM
- DC50 (SMARCA4): > 1000 nM
- Dmax (SMARCA4): < 50%
